# Assay results taken from US8546381B2, “Bridged heterocyclic compounds and methods of use” (Medivation Technologies, Inc., priority 2008, dated 2013).
# Experiments:
# [1] = molecular target: T1, human recombinant histamine H1 receptor (Homo sapiens, UniProt P35367); assay: Histamine H1 radioligand binding ([3H]Pyrilamine); conditions: compound at 1 μM; inhibition of specific [3H]Pyrilamine binding; read-out: Histamine Binding (1 μM) H1, Percentage Inhibition
# T1 construct: expressed in transfected cells; host or cells: CHO cells
# Method in brief: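 Membranes from CHO cells expressing human H1 receptor were incubated with 1.2 nM [3H]pyrilamine for 180 min at 25° C in Tris-HCl buffer pH 7.4. Non-specific binding defined with 1 μM pyrilamine; compounds tested at 1 μM or lower in 1% DMSO. Results are given as % inhibition of specific binding.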
# [2] = molecular target: T2, human recombinant adrenergic α2A receptor (Homo sapiens, UniProt P08913); assay: Adrenergic α2A radioligand binding ([3H]MK-912); conditions: 1 μM; read-out: Adrenergic α2A, inhibition of ligand binding (1 μM)
# T2 construct: expressed in transfected cells; host or cells: insect Sf9 cells
# T2 sequence (P08913 1-465): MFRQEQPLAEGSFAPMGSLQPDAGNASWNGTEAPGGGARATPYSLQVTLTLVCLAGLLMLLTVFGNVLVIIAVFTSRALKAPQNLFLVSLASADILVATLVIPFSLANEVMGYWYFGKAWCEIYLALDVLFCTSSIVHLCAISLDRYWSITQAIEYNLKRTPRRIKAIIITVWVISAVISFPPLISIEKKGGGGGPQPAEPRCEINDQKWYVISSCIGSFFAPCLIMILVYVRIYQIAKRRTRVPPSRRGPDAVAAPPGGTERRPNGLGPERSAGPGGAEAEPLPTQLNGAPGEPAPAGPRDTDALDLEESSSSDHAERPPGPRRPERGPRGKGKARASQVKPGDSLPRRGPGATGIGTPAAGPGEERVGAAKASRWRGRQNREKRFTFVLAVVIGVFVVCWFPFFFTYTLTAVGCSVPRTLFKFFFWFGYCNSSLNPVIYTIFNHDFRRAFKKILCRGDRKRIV
# Protocol: To evaluate in radioligand binding assays the activity of compounds of the invention, human recombinant adrenergic α2A receptor expressed in insect Sf9 cells (Uhlen S et al. J Pharmacol Exp Ther. 271:1558, 1994) in a modified Tris-HCl buffer (50 mM Tris-HCl, pH 7.4, 12.5 mM MgCl2, 2 mM EDTA) was used. Compounds of invention were incubated with 1 nM [^3H]MK-912 for 60 minutes at 25° C. MK912 is (2S-trans)-1,3,4,5′,6,6′,7,12b-octahydro-1′,3′-dimethyl-spiro[2H-benzofuro[2,3-a]quinolizine-2,4′(1′H) -pyrimidin]-2′(3′H)-one hydrochloride Non-specific binding was estimated in the presence of 10 μM WB-4101 (2-(2,6-Dimethoxyphenoxyethyl)aminomethyl-1,4-benzodioxane hydrochloride). Receptor proteins were filtered and washed, the filters were then counted to determine [^3H]MK-912 specifically bound. Compounds were screened at 1 μM or lower, using 1% DMSO as vehicle. Biochemical assay results are presented as the percent inhibition of specific binding in Table 3.
# [3] = molecular target: T3, human recombinant adrenergic α1D receptor (Homo sapiens, UniProt P25100); assay: Adrenergic α1D radioligand binding ([3H]Prozosin); conditions: 1 μM; read-out: Adrenergic α1D, inhibition of ligand binding (1 μM)
# T3 construct: expressed in transfected cells; host or cells: HEK-293 cells
# T3 sequence (P25100 1-572): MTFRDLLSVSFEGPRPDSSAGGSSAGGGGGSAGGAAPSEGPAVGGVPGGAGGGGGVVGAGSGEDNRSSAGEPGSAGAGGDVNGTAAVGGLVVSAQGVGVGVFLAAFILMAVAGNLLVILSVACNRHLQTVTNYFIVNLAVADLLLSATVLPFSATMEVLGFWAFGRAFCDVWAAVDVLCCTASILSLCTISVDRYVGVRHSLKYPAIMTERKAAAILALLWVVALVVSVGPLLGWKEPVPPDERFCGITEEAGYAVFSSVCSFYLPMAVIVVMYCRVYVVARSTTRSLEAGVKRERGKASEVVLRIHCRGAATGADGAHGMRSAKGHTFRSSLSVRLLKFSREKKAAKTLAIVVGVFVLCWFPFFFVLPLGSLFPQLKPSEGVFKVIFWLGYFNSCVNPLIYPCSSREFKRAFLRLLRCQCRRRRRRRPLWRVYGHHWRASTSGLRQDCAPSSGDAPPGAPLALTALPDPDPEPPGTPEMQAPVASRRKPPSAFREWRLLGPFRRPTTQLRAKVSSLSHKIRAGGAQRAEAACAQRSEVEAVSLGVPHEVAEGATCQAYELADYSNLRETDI
# Protocol: To evaluate in radioligand binding assays the activity of compounds of the invention, human recombinant adrenergic α1D receptor expressed in human embryonic kidney (HEK-293) cells (Kenny, B. A. et al. Br. J. Pharmacol. 115(6):981, 1995) in a 50 mM Tris-HCl buffer, pH 7.4, was used. Compounds of invention were incubated with 0.6 nM [^3H]Prozosin for 60 minutes at 25° C. Non-specific binding was estimated in the presence of 10 μM phentolamine. Receptor proteins were filtered and washed, the filters were then counted to determine [^3H]Prozosin specifically bound. Compounds were screened at 1 μM or lower, using 1% DMSO as vehicle. Biochemical assay results are presented as the percent inhibition of specific binding in Table 3.
# [4] = molecular target: T4, human recombinant serotonin (5-Hydroxytryptamine) 5-HT2A receptor (Homo sapiens, UniProt P28223); assay: Serotonin 5-HT2A radioligand binding ([3H]Ketanserin); conditions: read-out: Serotonin 5-HT2A, inhibition of ligand binding (1 μM)
# T4 construct: expressed in transfected cells; host or cells: CHO-K1 cells
# Method in brief: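 CHO-K1 membranes with human 5-HT2A in 50 mM Tris-HCl pH 7.4, incubated with 0.5 nM [3H]Ketanserin for 60 min at 25 °C; non-specific binding defined with 1 μM mianserin. Bound ligand measured by filtration and counting.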
# T1 sequence (P35367 whole entry): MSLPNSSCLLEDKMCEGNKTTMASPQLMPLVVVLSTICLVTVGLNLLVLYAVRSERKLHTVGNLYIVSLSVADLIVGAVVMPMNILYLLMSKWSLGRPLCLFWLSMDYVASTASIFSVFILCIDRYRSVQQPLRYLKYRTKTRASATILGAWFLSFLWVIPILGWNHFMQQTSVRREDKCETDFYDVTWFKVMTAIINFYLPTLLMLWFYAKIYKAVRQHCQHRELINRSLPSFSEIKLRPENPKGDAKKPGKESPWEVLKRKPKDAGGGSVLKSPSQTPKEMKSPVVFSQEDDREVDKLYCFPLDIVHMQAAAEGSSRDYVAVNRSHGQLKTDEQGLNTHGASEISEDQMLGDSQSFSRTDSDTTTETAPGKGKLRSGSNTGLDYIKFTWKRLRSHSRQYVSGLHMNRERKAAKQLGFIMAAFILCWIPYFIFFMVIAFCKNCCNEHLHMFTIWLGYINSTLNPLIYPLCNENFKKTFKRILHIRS
# T4 sequence (P28223 whole entry): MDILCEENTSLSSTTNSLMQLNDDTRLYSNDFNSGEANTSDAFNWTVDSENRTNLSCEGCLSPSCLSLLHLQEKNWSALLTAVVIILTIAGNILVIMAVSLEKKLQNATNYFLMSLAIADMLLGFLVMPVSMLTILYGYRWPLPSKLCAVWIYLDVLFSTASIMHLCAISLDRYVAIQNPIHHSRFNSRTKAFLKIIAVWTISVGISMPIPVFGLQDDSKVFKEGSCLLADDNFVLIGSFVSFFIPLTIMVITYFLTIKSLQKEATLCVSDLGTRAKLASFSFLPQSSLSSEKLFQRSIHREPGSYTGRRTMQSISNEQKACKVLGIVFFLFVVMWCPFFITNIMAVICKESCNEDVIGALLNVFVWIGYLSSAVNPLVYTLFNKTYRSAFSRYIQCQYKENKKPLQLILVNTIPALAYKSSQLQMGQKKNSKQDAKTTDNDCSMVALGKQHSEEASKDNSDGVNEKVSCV
Compound,inhibition at 1 µM [1] [%],inhibition at 1 µM [2] [%],inhibition at 1 µM [3] [%],inhibition at 1 µM [4] [%]
Cc1ccc(CCn2c3c(c4ccccc42)C2CCC(C3)N2C)cn1 (stereo not drawn) [Compound 92],54,15,8,16
Cc1ccc2c(c1)c1c(n2CC(=O)N2CCCCC2)CC2CCC1N2C (stereo not drawn) [Compound 93],4,4,-18,-12
"CN1[C@@H]2CC[C@H]1c1c(n(CCc3ccc(F)cc3)c3ccc(F)cc13)C2 [Compound 94, (+)-(7S,10R)-2-Fluoro-5-(4-fluorophenethyl)-11-methyl-5,6,7,8,9,10-hexahydro-7,10-iminocyclohept[b]indole]",92,56,77,81
"CN1[C@H]2CC[C@@H]1c1c(n(CCc3ccc(F)cc3)c3ccc(F)cc13)C2 [Compound 95, (−)-(7R,10S)-2-Fluoro-5-(4-fluorophenethyl)-11-methyl-5,6,7,8,9,10-hexahydro-7,10-iminocyclohept[b]indole]",55,65,82,57
CN1[C@@H]2CC[C@H]1c1c(n(CCc3ccc(C(F)(F)F)nc3)c3ccccc13)C2 [Compound 97],26,26,19,25
CN1[C@@H]2CC[C@H]1c1c(n(CC(C)(O)c3ccc(F)cc3)c3ccccc13)C2 (stereo partly drawn) [Compound 99],21,25,20,73
CN1[C@@H]2CC[C@H]1c1c(n(CC(=O)N3CCCCC3)c3ccccc13)C2 [Compound 101],48,18,74,93
Cc1ccc(CCn2c3c(c4ccccc42)[C@@H]2CC[C@H](C3)N2C)cn1 [Compound 102],52,4,1,11
Cc1ccc2c(c1)c1c(n2CCC#N)CC2CCC1N2C (stereo not drawn) [Compound 103],85,57,86,13
CN1C2CCC1c1c(n(CCC#N)c3ccc(Cl)cc13)C2 (stereo not drawn) [Compound 107],72,42,47,5
CN1C2CCC1c1c(n(CC(=O)c3ccccc3)c3ccc(Cl)cc13)C2 (stereo not drawn) [Compound 110],36,48,40,83
CN1C2CCC1c1c(n(CC(=O)c3ccc(Cl)cc3)c3ccc(Cl)cc13)C2 (stereo not drawn) [Compound 111],66,89,40,94
Cc1ccc2c(c1)c1c(n2CCc2nc(-c3ccccc3)cs2)CC2CCC1N2C (stereo not drawn) [Compound 114],93,46,68,88
C/C(=C\n1c2c(c3cc(C)ccc31)C1CCC(C2)N1C)c1ccc(Cl)cc1 (stereo not drawn) [Compound 116],23,83,40,90
C/C(=C/n1c2c(c3ccccc31)[C@@H]1CC[C@H](C2)N1C)c1ccc(F)cc1 [Compound 121],17,55,80,98
C/C(=C\n1c2c(c3cc(Cl)ccc31)C1CCC(C2)N1C)c1ccc(F)cc1 (stereo not drawn) [Compound 123],62,95,79,97
C/C(=C\n1c2c(c3cc(C)ccc31)C1CCC(C2)N1C)c1ccc(F)cc1 (stereo not drawn) [Compound 124],31,91,67,97
C/C(=C\n1c2c(c3cc(Cl)ccc31)C1CCC(C2)N1C)c1ccc(Cl)cc1 (stereo not drawn) [Compound 125],82,92,54,101
COc1ccc(/C(C)=C/n2c3c(c4cc(Cl)ccc42)C2CCC(C3)N2C)cc1F (stereo not drawn) [Compound 136],69,91,61,99
CN1C2CCC1c1c(n(C#Cc3ccc(F)cc3)c3ccc(Cl)cc13)C2 (stereo not drawn) [Compound 138],57,95,60,98
Cc1ccc(C#Cn2c3c(c4cc(Cl)ccc42)C2CCC(C3)N2C)cn1 (stereo not drawn) [Compound 139],57,93,65,88
Cc1ccc2c(c1)c1c(n2C#Cc2ccc(F)cc2)CC2CCC1N2C (stereo not drawn) [Compound 141],2,61,20,93
CN1C2CCC1c1c(n(C#Cc3ccc(Cl)cc3)c3ccc(Cl)cc13)C2 (stereo not drawn) [Compound 142],34,82,27,98
COc1ccc(C(C)(O)Cn2c3c(c4cc(Cl)ccc42)C2CCC(C3)N2C)cc1F (stereo not drawn) [Compound 160],86,63,0,95
COc1ccc(C(C)(O)Cn2c3c(c4cc(C)ccc42)C2CCC(C3)N2C)cc1F (stereo not drawn) [Compound 161],84,55,30,96
Cc1ccc2c(c1)c1c(n2C(=O)Cc2ccc(Cl)cc2)CC2CCC1N2C (stereo not drawn) [Compound 162],0,59,34,92
C/C(=C\n1c2c(c3cc(C)ccc31)C1CCC(C2)N1C)c1ccc(Cl)cc1Cl (stereo not drawn) [Compound 163],72,95,53,94
